One data set deals with CDK6/Cyclin D1 (Homo sapiens (Human), UniProt Q00534). Description: CDK6/CyclinD1 enzymatic activity assay (TR-FRET). Particulars: CDK6/Cyclin D1 1 nM, ATP 250 μM, read-out: CDK6_D1 IC50. The data set is classed as biochemical. The procedure: CDK6/CyclinD1 Enzymatic Activity Assay
The inhibitory activity of compounds was evaluated in vitro using TR-FRET assay with white 384-well low volume microplate (Greiner Bio-One). CDK6/Cyclin D1 catalyzed phosphorylation of peptide in the presence and absence of compounds was measured and used in IC50 determination. Recombinant protein complex CDK6/Cyclin D1, expressed from insect cell, was purchased from ProQinase. Testing compounds were dissolved in DMSO at 0.1 mM and tested in 9-dose IC50 mode. The reaction mixture was prepared by mixing CDK6/Cyclin D1 (1 nM final), ULight-4E-BP1 (100 nM final, Perkinelmer, TRF0128-D), and ATP (250 μM final) in assay buffer (20 mM of HEPES pH 7.4, 1 mM of EGTA, 0.05% BSA, 0.005% Tween 20, and 1 mM TCEP). The compound of interest in DMSO was added to each well in 3-fold serial dilution by dispenser (TECAN D300E). After 20 minutes preincubation at room temperature, 0.1 μL MgCl2 (10 mM final) was added to initiate the reaction. Following a 60 minutes incubation at 37° C., the reaction was stopped by addition of 2 μL of quenching buffer consisting of Lance detection buffer (Perkinelmer CR97-100C), 2 nM LANCE Ultra Europium-anti-P-4E-BP1 (Perkinelmer, TRF0216-D), 10 mM EDTA, and incubate at room temperature for additional 60 minutes in dark. The reaction signal was measured by Envision multimode plate reader (PerkinElmer, 2102-0010). IC50 values were determined by fitting the data to the standard 4 parameters with Hill Slope using GraphPad Prism software.

Another data set addresses CDK4/Cyclin D1 (Homo sapiens (Human), UniProt P11802). The data set can be described thus: CDK4/CyclinD1 enzymatic activity assay (TR-FRET). The class given is biochemical. As to conditions: CDK4/CyclinD1 1 nM, ATP 2 mM, read-out: CDK4_D1 IC50. The method, boiled down:
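Insect-cell CDK4/Cyclin D1 (1 nM) with ULight-4E-BP1 (100 nM) and 2 mM ATP in HEPES pH 7.4 buffer, preincubated 20 min with compound (9-dose, 3-fold dilutions); 10 mM MgCl2 started the reaction, run 60 min at 37 °C. EDTA/Eu-anti-phospho-4E-BP1 TR-FRET detection; IC50 from 4-parameter Hill fit.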

The test system of data set [1] is MCF7 adenocarcinoma cell line. Description: Cell proliferation studies in MCF7 cells (ATP-Lite). The class given is cell-based. Particulars: 10 days incubation, cell viability by ATP-Lite luminescence, read-out: PROLIFERATION_CTG_MCF7 IC50. The method, boiled down:
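MCF7 cells, seeded at 100 or 200 cells/well, were exposed for 10 days at 37 °C to a 9-point, 3-fold dilution series in quadruplicate, with media exchange and re-dosing on day 5. Viability was read by ATP-Lite luminescence, normalized to background and DMSO, and fitted for IC50.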

A short description of data set [2]: Brain-to-plasma ratio determination in Sprague-Dawley rats. The class given is in vivo. As to conditions: rat, male Sprague-Dawley rats, four hours after a single oral dose (3, 4, 5, or 10 mg/kg). On the procedure: Example B: Brain-to-Plasma Ratio Determination in Sprague-Dawley Rats
The brain-to-plasma ratio (Kp) was determined in male Sprague-Dawley rats (7-9 weeks old) four hours after a single oral dose. Rats were acclimated and given free access to standard rodent chow and water throughout the entire study. Test articles were formulated as a solution at 0.3, 0.4, 0.5, or 1.0 mg/mL in a vehicle comprised of 10:15:75 (v:v:v) dimethylacetamide (DMA):Solutol HS15:water and delivered orally at a rate of 10 mL/kg to three rats to achieve final doses of 3, 4, 5, or 10 mg/kg, respectively. At 4 hours post-dose, blood samples were collected via jugular vein cannula into tubes containing K2EDTA as the anticoagulant and stored on ice. Blood samples were then centrifuged at 4° C. at 6000 rpm for 5 minutes, and the resulting plasma was placed into tubes and stored frozen at −80° C. until analysis. Whole brain samples were also collected at 4 hours post-dose. The weight of each brain was measured and recorded, and samples were immediately stored on dry ice. Brain samples were then transferred to storage at −80° C. until analysis.
Prior to analysis, brain samples were combined with water (4 mL/1 gram of brain) and homogenized. Prior to injection, plasma and brain homogenate samples and standards were prepared for analysis by precipitation with acetonitrile or 1:1 (v:v) methanol:acetonitrile. Samples were then thoroughly mixed, centrifuged at 4000 rpm for 15 minutes, and the resulting supernatant was transferred for analysis. Test article concentrations in plasma and brain homogenate were then determined by LC-MS/MS and quantified against calibration standards prepared to known concentrations in matched blank (analyte-free) biological matrix. The Kp was then determined by dividing the dilution-corrected brain concentration by the plasma concentration from each rat. A brain density of 1 gram/mL was assumed for all calculations.

Where two headings read alike, the source gives them in different places.

Chain of CDK6/Cyclin D1 (Q00534 whole entry): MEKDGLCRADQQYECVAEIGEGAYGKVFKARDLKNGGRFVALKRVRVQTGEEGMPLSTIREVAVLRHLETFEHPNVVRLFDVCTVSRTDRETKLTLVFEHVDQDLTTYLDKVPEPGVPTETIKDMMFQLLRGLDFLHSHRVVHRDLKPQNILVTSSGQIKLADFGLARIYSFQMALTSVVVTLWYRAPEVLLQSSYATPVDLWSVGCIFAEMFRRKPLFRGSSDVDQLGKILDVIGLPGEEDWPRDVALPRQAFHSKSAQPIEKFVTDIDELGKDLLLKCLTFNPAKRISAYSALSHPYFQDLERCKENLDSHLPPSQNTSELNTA
Chain of CDK6/Cyclin D1 (P24385 whole entry partner): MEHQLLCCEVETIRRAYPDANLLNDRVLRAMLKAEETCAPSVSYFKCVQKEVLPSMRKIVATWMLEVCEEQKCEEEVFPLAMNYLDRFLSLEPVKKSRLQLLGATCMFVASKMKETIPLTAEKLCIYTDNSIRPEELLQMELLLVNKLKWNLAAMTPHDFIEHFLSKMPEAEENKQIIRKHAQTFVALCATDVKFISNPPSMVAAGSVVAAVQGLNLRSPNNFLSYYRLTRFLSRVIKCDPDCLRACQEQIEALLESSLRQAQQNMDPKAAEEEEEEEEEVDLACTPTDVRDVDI
Chain of CDK4/Cyclin D1 (P11802 whole entry): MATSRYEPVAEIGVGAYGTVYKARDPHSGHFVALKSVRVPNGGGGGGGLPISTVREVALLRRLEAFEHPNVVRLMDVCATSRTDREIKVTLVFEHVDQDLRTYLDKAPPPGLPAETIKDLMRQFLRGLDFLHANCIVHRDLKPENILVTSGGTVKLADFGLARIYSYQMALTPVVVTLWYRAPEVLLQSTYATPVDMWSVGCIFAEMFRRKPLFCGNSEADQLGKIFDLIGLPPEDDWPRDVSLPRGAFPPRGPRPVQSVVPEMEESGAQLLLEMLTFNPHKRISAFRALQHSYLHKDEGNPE
Chain of CDK4/Cyclin D1 (P24385 whole entry partner): as the sequence (P24385 whole entry partner) above

For the compound `CCN1CC2(C1)CN(c1ccc(Nc3ncc(F)c(-c4cc5c(s4)C4(CCCC4)CN(C)C5=O)n3)nc1)C2` [Example 1, 2′-(2-((5-(6-Ethyl-2,6-diazaspiro[3.3]heptan-2-yl)pyridin-2-yl)amino)-5-fluoropyrimidin-4-yl)-5′-methyl-5′,6′-dihydro-4′H-spiro[cyclopentane-1,7′-thieno[3,2-c]pyridin]-4′-one], the IC50 on CDK6/Cyclin D1 was at most 0.02 µM; on CDK4/Cyclin D1, at most 0.02 µM; in data set [1] (Homo sapiens, 240 h) it was 0.02 to 0.2 µM. Moreover, the Kp at 4 h in data set [2] lay within 1 to 3.
For the compound `Cc1c(-c2nc(Nc3ccc(N4CC5(CCN(C)C5)C4)cn3)ncc2F)sc2c1C(=O)N(C)C21CC1` [Example 14, 2′-(5-Fluoro-2-((5-(6-methyl-2,6-diazaspiro[3.4]octan-2-yl)pyridin-2-yl)amino)pyrimidin-4-yl)-3′,5′-di methyl spiro[cyclopropane-1,6′-thieno[2,3-c]pyrrol]-4′(5′H)-one], the IC50 at CDK4/Cyclin D1 was at most 0.02 µM; in data set [1] (Homo sapiens, 240 h), at most 0.02 µM. Also, the Kp at 4 h in data set [2] was in the range of 1 to 3.
For the compound `Cc1c(-c2nc(Nc3ccc(C4CCCN(C)C4)cn3)ncc2F)sc2c1C(=O)N(C)C21CC1` (stereo not shown) [Example 15, 2′-(5-Fluoro-2-((5-(1-methylpiperidin-3-yl)pyridin-2-yl)amino)pyrimidin-4-yl)-3′,5′-dimethylspiro[cyclopropane-1,6′-thieno[2,3-c]pyrrol]-4′(5′H)-one], the IC50 on CDK4/Cyclin D1 is at most 0.02 µM; in data set [1] (Homo sapiens, 240 h), 0.02 to 0.2 µM. Also, in data set [2], the Kp at 4 h was in the range of 1 to 3.
Consider `CCN1C(=O)c2cc(-c3nc(Nc4ccc(C5CCCN(C)C5)cn4)ncc3C)sc2C12CC2` (stereo not shown) [Example 18, 5′-Ethyl-2′-[5-methyl-2-[[5-(1-methylpiperidin-3-yl)pyridin-2-yl]amino]pyrimidin-4-yl]spiro[cyclopropane-1,6′-thieno[2,3-c]pyrrole]-4′-one], for which the IC50 at CDK4/Cyclin D1 is at most 0.02 µM; in data set [1] (Homo sapiens, 240 h), 0.02 to 0.2 µM. In data set [2], the Kp at 4 h was 1 to 3.
Take `Cc1c(-c2nc(Nc3ccc(C4CCN(C)CC4)cn3)ncc2Cl)sc2c1C(=O)N(C)CC21CCC1` [Example 60, 2-[5-Chloro-2-[[5-(1-methyl-piperidin-4-yl)pyridin-2-yl]amino]pyrimidin-4-yl]-3,5-dimethylspiro[6H-thieno[3,2-c]pyridine-7,1′-cyclobutane]-4-one]: the IC50 is at most 0.02 µM at CDK6/Cyclin D1; at most 0.02 µM at CDK4/Cyclin D1; 0.02 to 0.2 µM in data set [1] (Homo sapiens, 240 h).
On to `CN1CC2(C1)CN(c1ccc(Nc3ncc(F)c(-c4cc5c(s4)C4(CCCC4)CN(C)C5=O)n3)nc1)C2` [Example 61, 2′-(5-Fluoro-2-((5-(6-(methyl-d3)-2,6-diazaspiro[3.3]heptan-2-yl)pyridin-2-yl)amino)pyrimidin-4-yl)-5,-(methyl-d3)-5′,6′-dihydro-4′H-spiro[cyclopentane-1,7′-thieno[3,2-c]pyridin]-4′-one], for which the IC50 (on CDK6/Cyclin D1; at CDK4/Cyclin D1; in data set [1]) was at most 0.02 µM in each case.
On to `CN1CC2(CCCC2)c2sc(-c3nc(Nc4ccc(N5CCOCC5)cn4)ncc3F)cc2C1=O` [Example 62, 2′-(5-Fluoro-2-((5-morpholino-pyridin-2-yl)amino)pyrimidin-4-yl)-5′-methyl-5′,6′-dihydro-4′H-spiro[cyclopentane-1,7′-thieno[3,2-c]pyridin]-4′-one], for which the IC50 on CDK6/Cyclin D1 was 0.02 to 0.2 µM; at CDK4/Cyclin D1 it was at most 0.02 µM; in data set [1] (Homo sapiens, 240 h), 0.02 to 0.2 µM.
For `[2H]C([2H])([2H])N1C(=O)c2c(sc(-c3nc(Nc4ccc(C5CCN(C)CC5)cn4)ncc3F)c2C)C12CC2` [Example 70, 2′-[5-Fluoro-2-[[5-(1-methylpiperidin-4-yl)pyridin-2-yl]amino]pyrimidin-4-yl]-3′-methyl-5′-(trideuteriomethyl)spiro[cyclopropane-1,6′-thieno[2,3-c]pyrrole]-4′-one], the IC50 at CDK6/Cyclin D1 was at most 0.02 µM; at CDK4/Cyclin D1, at most 0.02 µM; in data set [1] (Homo sapiens, 240 h) it was 0.02 to 0.2 µM.
Take `Cc1c(-c2nc(Nc3ccc(C4CCN(C)CC4)cn3)ncc2F)sc2c1C(=O)NC21CC1` [Example 73, 2-[5-Fluoro-2-[[5-(1-methylpiperidin-4-yl)pyridin-2-yl]amino]pyrimidin-4-yl]-3-methylspiro[5H-thieno[2,3-c]pyrrole-6,1′-cyclopropane]-4-one]: the IC50 at CDK6/Cyclin D1 was at most 0.02 µM; at CDK4/Cyclin D1, at most 0.02 µM; in data set [1] (Homo sapiens, 240 h), at most 0.02 µM.
Regarding `CN1CCC(c2ccc(Nc3ncc(F)c(-c4cc5c(n4C)C4(CCCC4)CN(C)C5=O)n3)nc2)CC1` [Example 74, 2′-(5-Fluoro-2-((5-(1-methylpiperidin-4-yl)pyridin-2-yl)amino)pyrimidin-4-yl)-1′,5′-dimethyl-5′,6′-dihydrospiro[cyclopentane-1,7′-pyrrolo[3,2-c]pyridin]-4′(1′H)-one], the IC50 at CDK6/Cyclin D1 is 0.02 to 0.2 µM; at CDK4/Cyclin D1, at most 0.02 µM; in data set [1] (Homo sapiens, 240 h), 0.02 to 0.2 µM.
With `CN1CCC(c2ccc(Nc3ncc(F)c(-c4cc5c(s4)C4(CCOCC4)CN(C)C5=O)n3)nc2)CC1` [Example 77, 2′-(5-Fluoro-2-((5-(1-methylpiperidin-4-yl)pyridin-2-yl)amino)pyrimidin-4-yl)-5′-methyl-2,3,5,5′,6,6′-hexahydro-4′H-spiro[pyran-4,7′-thieno[3,2-c]pyridin]-4′-one], the IC50 is 0.02 to 0.2 µM at CDK6/Cyclin D1; at most 0.02 µM at CDK4/Cyclin D1; 0.02 to 0.2 µM in data set [1] (Homo sapiens, 240 h).
As for `Cc1cnc(Nc2ccc(C3CCN(C)CC3)cn2)nc1-c1cc2c(s1)C1(CC1)N(C)C2=O` [Example 80, 5′-Methyl-2′-(5-methyl-2-((5-(1-methylpiperidin-4-yl)pyridin-2-yl)amino)pyrimidin-4-yl)spiro[cyclopropane-1,6′-thieno[2,3-c]pyrrol]-4′(5′H)-one], the IC50 was 0.02 to 0.2 µM at CDK6/Cyclin D1; at most 0.02 µM on CDK4/Cyclin D1; at most 0.02 µM in data set [1] (Homo sapiens, 240 h).
Regarding `CCN1CC2(C1)CN(c1ccc(Nc3ncc(F)c(-c4cc5c(s4)C4(CCCC4)CN(C)C5=O)n3)nn1)C2` [Example 82, 2-[2-[[6-(6-Ethyl-2,6-diazaspiro[3.3]heptan-2-yl)pyridazin-3-yl]amino]-5-fluoropyrimidin-4-yl]-5-methylspiro[6H-thieno[3,2-c]pyridine-7,1′-cyclopentane]-4-one], the IC50 at CDK6/Cyclin D1 was at most 0.02 µM; on CDK4/Cyclin D1, at most 0.02 µM; in data set [1] (Homo sapiens, 240 h), 0.02 to 0.2 µM.
On to `CCN1CCN(c2ccc(Nc3ncc(F)c(-c4cc5c(s4)C4(CCCC4)CN(C)C5=O)n3)nc2)C(=O)C1` [Example 86, 2-[2-[[5-(4-Ethyl-2-oxopiperazin-1-yl)pyridin-2-yl]amino]-5-fluoropyrimidin-4-yl]-5-methylspiro[6H-thieno[3,2-c]pyridine-7,1′-cyclopentane]-4-one], for which the IC50 is 0.02 to 0.2 µM on CDK6/Cyclin D1; at most 0.02 µM at CDK4/Cyclin D1; 0.02 to 0.2 µM in data set [1] (Homo sapiens, 240 h).

These data come from patent publication US20250163074A1, “CDK Inhibitors And Their Use As Pharmaceuticals” (Prelude Therapeutics Incorporated, priority 2020, published 2025).
